The record followed here is article PMC5241705 (ACS Infectious Diseases, 2016).

Assay [1] has as its system Mtb H37Rv attB::guaB2^Y487C. Format: cell-based, Mycobacterium tuberculosis.
Another assay addresses Mtb GuaB2^Y487C (Mycobacterium tuberculosis, UniProt P9WKI7, Y487C). Format: biochemical.
Assay [2] has as its system Mtb SRMV2.6 attB::guaB2^Y487C. Format: cell-based, Mycobacterium tuberculosis.

A word on the MIC90: it is an inhibitory concentration at the 90% level, which refers to growth in some studies and to a panel of isolates in others.

Entries after “also recorded” stand apart in the source; their conditions may differ.

In the case of `O=C(C1CCCCC1)N1CCN(S(=O)(=O)c2cccc3cnccc23)CC1` [VCC234718, N-(5-Isoquinolinylsulfonyl)-N’-cyclohexanoyl-piperazine], the MIC90 in assay [1] was over 100 µM; in assay [2], over 200 µM. The “inhibition of Mtb GuaB2^Y487C” value at Mtb GuaB2^Y487C is “inactive; also recorded: refractory to inhibition”.
